Molecular target: T1, TrkA (Homo sapiens, UniProt P04629)
T1 construct: purchased Invitrogen PV3144
Test: TrkA kinase inhibition, HTRF assay
Assay type: biochemical
Details: LCK peptide substrate 125 nM, TrkA 2-10 nM pre-incubated with ATP 200 μM
Summary of the method: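 TrkA (2-10 nM) preactivated 20 min with 200 μM ATP in HEPES pH 7.4 with Mg2+/Mn2+, then compound for 10 min, then 125 nM biotinylated LCK-peptide for 1 h at ambient temperature. HTRF 665/620 ratio read; IC50 fitted from initial-rate percent inhibition.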

T1 sequence (P04629 33-796): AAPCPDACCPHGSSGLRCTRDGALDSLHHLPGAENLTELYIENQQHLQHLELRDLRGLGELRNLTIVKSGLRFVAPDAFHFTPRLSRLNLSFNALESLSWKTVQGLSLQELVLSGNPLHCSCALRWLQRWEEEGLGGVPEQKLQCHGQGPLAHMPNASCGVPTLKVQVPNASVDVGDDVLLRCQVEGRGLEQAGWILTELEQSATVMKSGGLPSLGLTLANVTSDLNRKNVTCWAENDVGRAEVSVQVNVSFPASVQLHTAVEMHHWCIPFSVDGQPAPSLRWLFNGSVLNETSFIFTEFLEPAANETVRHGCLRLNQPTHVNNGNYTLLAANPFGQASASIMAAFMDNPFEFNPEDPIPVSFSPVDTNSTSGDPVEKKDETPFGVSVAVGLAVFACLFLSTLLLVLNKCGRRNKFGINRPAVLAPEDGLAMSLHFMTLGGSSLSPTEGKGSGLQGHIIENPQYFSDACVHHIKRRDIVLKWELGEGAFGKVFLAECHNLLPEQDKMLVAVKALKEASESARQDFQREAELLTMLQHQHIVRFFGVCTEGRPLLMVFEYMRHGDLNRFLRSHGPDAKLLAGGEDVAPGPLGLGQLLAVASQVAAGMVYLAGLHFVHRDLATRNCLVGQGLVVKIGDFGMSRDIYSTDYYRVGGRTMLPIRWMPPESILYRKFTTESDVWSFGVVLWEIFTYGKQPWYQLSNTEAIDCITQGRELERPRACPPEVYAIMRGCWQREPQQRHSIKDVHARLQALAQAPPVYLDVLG

Row | IC50 [nM] | Molecule
1 | 852 | CC(Oc1cc(-c2ccc(C(N)=O)c(N3C[C@H]4CN(Cc5ccccc5)C[C@H]4C3)c2)cc2[nH]nc(N)c12)C(F)(F)F (stereo partly drawn) [Example 99, 4-{3-amino-4-[(1,1,1-trifluoropropan-2-yl)oxy]-1H-indazol-6-yl}-2-[(3aR*,6aS*)-5-benzylhexahydropyrrolo[3,4-c]pyrrol-2(1H)-yl]benzamide]
2 | 173 | NC(=O)c1ccc(-c2cc(O[C@H]3CCOC3)c3c(N)n[nH]c3c2)cc1N1CCN(C2CC2)CC1 [Example 65, 4-{3-amino-4-[(3S)-tetrahydrofuran-3-yloxy]-1H-indazol-6-yl}-2-(4-cyclopropylpiperazin-1-yl)benzamide]
3 | 2550 | CNC(=O)c1ccc(-c2cc(O[C@H](C)C(F)(F)F)c3c(N)n[nH]c3c2)cc1N1CCC(N2CCOCC2)CC1 [Example 59, 4-(3-amino-4-{[(2R)-1,1,1-trifluoropropan-2-yl]oxy}-1H-indazol-6-yl)-N-methyl-2-[4-(morpholin-4-yl)piperidin-1-yl]benzamide]
4 | 17.5 | NC(=O)c1ccc(-c2cc(OC3CCCC3)c3c(N)n[nH]c3c2)cc1N1CCN(C(=O)c2ccccc2)CC1 [Example 80, 4-[3-amino-4-(cyclopentyloxy)-1H-indazol-6-yl]-2-(4-benzoylpiperazin-1-yl)benzamide]
5 | 8.45 | CC(=O)N1CCC(Oc2cc(-c3ccc(C(N)=O)c(N4CCN(c5ccccc5)CC4)c3)cc3[nH]nc(N)c23)CC1 [Example 64, 4-{4-[(1-acetylpiperidin-4-yl)oxy]-3-amino-1H-indazol-6-yl}-2-(4-phenylpiperazin-1-yl)benzamide]
6 | 29.6 | CC(=O)c1ccc(-c2cc(OC3CCOCC3)c3c(N)n[nH]c3c2)cc1N1CCN(c2cccnc2)CC1 [Example 16, 1-{4-[3-amino-4-(tetrahydro-2H-pyran-4-yloxy)-1H-indazol-6-yl]-2-[4-(pyridin-3-yl)piperazin-1-yl]phenyl}ethanone]
7 | 2.31 | NC(=O)c1ccc(-c2cc(OC3CCCC3)c3c(N)n[nH]c3c2)cc1N1CCN(c2ccccn2)CC1 [Example 75, 4-[3-amino-4-(cyclopentyloxy)-1H-indazol-6-yl]-2-[4-(pyridin-2-yl)piperazin-1-yl]benzamide]
8 | 74.5 | CC(=O)Nc1ccc(-c2cc(OC3CCOCC3)c3c(C)n[nH]c3c2)cc1N1CCN(Cc2ccc(Cl)o2)CC1 [Example 150, N-(2-{4-[(5-chloro-2-furyl)methyl]piperazin-1-yl}-4-[3-methyl-4-(tetrahydro-2H-pyran-4-yloxy)-1H-indazol-6-yl]phenyl)acetamide]
9 | 37 | NC(=O)c1ccc(-c2cc(OC3CCOCC3)c3c(N)n[nH]c3c2)cc1N1CCN(CCN2CCOCC2)CC1 [Example 5, 4-[3-amino-4-(tetrahydro-2H-pyran-4-yloxy)-1H-indazol-6-yl]-2-{4-[2-(morpholin-4-yl)ethyl]piperazin-1-yl}benzamide]
10 | 3460 | CN1CCC(N2CCN(c3cc(-c4cc(OC5CCOCC5)c5c(N)n[nH]c5c4)ccc3C(N)=O)CC2)CC1 [Example 9, 4-[3-amino-4-(tetrahydro-2H-pyran-4-yloxy)-1H-indazol-6-yl]-2-[4-(1-methylpiperidin-4-yl)piperazin-1-yl]benzamide]
11 | 22.3 | NC(=O)c1ccc(-c2cc(OC3CCCC3)c3c(N)n[nH]c3c2)cc1N1CCN(C(=O)N2CCOCC2)CC1 [Example 82, 4-[3-amino-4-(cyclopentyloxy)-1H-indazol-6-yl]-2-[4-(morpholin-4-ylcarbonyl)piperazin-1-yl]benzamide]
12 | 25.1 | CNC(=O)c1ccc(-c2cc(OC3CCOCC3)c3c(C)n[nH]c3c2)cc1N1CCN(C(=O)OCCOC)CC1 [Example 138, 2-methoxyethyl 4-{2-(methylcarbamoyl)-5-[3-methyl-4-(tetrahydro-2H-pyran-4-yloxy)-1H-indazol-6-yl]phenyl}piperazine-1-carboxylate]
13 | 19.2 | CNC(=O)c1ccc(-c2cc(OC3CCOCC3)c3c(C)n[nH]c3c2)cc1N1CCN(C(=O)C2CC2)CC1 [Example 124, 2-[4-(cyclopropylcarbonyl)piperazin-1-yl]-N-methyl-4-[3-methyl-4-(tetrahydro-2H-pyran-4-yloxy)-1H-indazol-6-yl]benzamide]
14 | 77.8 | CNC(=O)c1ccc(-c2cc(OC3CCOCC3)c3cn[nH]c3c2)cc1N1CCN(C2CCCCC2)CC1 [Example 116, 2-(4-cyclohexylpiperazin-1-yl)-N-methyl-4-[4-(tetrahydro-2H-pyran-4-yloxy)-1H-indazol-6-yl]benzamide]
15 | 33.3 | CC(=O)c1ccc(-c2cc(OC3CCOCC3)c3c(N)n[nH]c3c2)cc1N1CCN(c2nccs2)CC1 [Example 21, 1-{4-[3-amino-4-(tetrahydro-2H-pyran-4-yloxy)-1H-indazol-6-yl]-2-[4-(1,3-thiazol-2-yl)piperazin-1-yl]phenyl}ethanone]
16 | 58.1 | CC(Oc1cc(-c2ccc(C(=O)NC3CC3)c(N3CCN(c4ccccc4)CC3)c2)cc2[nH]nc(N)c12)C(F)(F)F (centres unmarked) [Example 26, 4-{3-amino-4-[(1,1,1-trifluoropropan-2-yl)oxy]-1H-indazol-6-yl}-N-cyclopropyl-2-(4-phenylpiperazin-1-yl)benzamide]
17 | 11.5 | CNC(=O)c1ccc(-c2cc(OC3CCOCC3)c3c(N)n[nH]c3c2)cc1N1CCN(CC(F)(F)C(F)F)CC1 [Example 167, 4-[3-amino-4-(tetrahydro-2H-pyran-4-yloxy)-1H-indazol-6-yl]-N-methyl-2-[4-(2,2,3,3-tetrafluoropropyl)piperazin-1-yl]benzamide]
18 | 34.1 | Cc1n[nH]c2cc(-c3ccc(C(N)=O)cc3)cc(OC3CCOCC3)c12 [Example 132, 4-[3-methyl-4-(tetrahydro-2H-pyran-4-yloxy)-1H-indazol-6-yl]benzamide]
19 | 89.2 | CC(=O)N1CCN(c2cc(-c3cc(OC(C)C(F)(F)F)c4c(N)n[nH]c4c3)ccc2C(N)=O)CC1 (centres unmarked) [Example 96, 2-(4-acetylpiperazin-1-yl)-4-{3-amino-4-[(1,1,1-trifluoropropan-2-yl)oxy]-1H-indazol-6-yl}benzamide]
20 | 80.8 | CNC(=O)c1ccc(-c2cc(OC3CCOCC3)c3c(N)n[nH]c3c2)cc1N1CCN(C(=O)OC(C)C)CC1 [Example 114, isopropyl 4-{5-[3-amino-4-(tetrahydro-2H-pyran-4-yloxy)-1H-indazol-6-yl]-2-(methylcarbamoyl)phenyl}piperazine-1-carboxylate]
21 | 27.2 | CNC(=O)c1ccc(-c2cc(O[C@H](C)C(F)(F)F)c3c(N)n[nH]c3c2)cc1N1CCN(c2ncccn2)CC1 [Example 52, 4-(3-amino-4-{[(2R)-1,1,1-trifluoropropan-2-yl]oxy}-1H-indazol-6-yl)-N-methyl-2-[4-(pyrimidin-2-yl)piperazin-1-yl]benzamide]
22 | 82.5 | CCNC(=O)c1ccc(-c2cc(OC3CCCC3)c3cn[nH]c3c2)cc1N1CCN(c2ccccc2)CC1 [Example 120, 4-[4-(cyclopentyloxy)-1H-indazol-6-yl]-N-ethyl-2-(4-phenylpiperazin-1-yl)benzamide]
23 | 4.42 | NC(=O)c1ccc(-c2cc(OC3CCOCC3)c3c(N)n[nH]c3c2)cc1N1CCN(c2cncc(Cl)c2)CC1 [Example 8, 4-[3-amino-4-(tetrahydro-2H-pyran-4-yloxy)-1H-indazol-6-yl]-2-[4-(5-chloropyridin-3-yl)piperazin-1-yl]benzamide]
24 | 19.2 | 4-{3-amino-4-[(1,1,1-trifluoropropan-2-yl)oxy]-1H-indazol-6-yl}-2-(4-cyclopentylpiperazin-1-yl)benzamide [Example 102]
25 | 8330 | NC(=O)c1ccc(-c2ccc3c(N)n[nH]c3c2)cc1N1CCN(CC(=O)N2CCCC2)CC1 [Example 83, 4-(3-amino-1H-indazol-6-yl)-2-{4-[2-oxo-2-(pyrrolidin-1-yl)ethyl]piperazin-1-yl}benzamide]
26 | 34.6 | CC(=O)Nc1ccc(-c2cc(OC3CCOCC3)c3c(C)n[nH]c3c2)cc1N1CCN(Cc2cccnc2)CC1 [Example 148, N-{4-[3-methyl-4-(tetrahydro-2H-pyran-4-yloxy)-1H-indazol-6-yl]-2-[4-(pyridin-3-ylmethyl)piperazin-1-yl]phenyl}acetamide]
